Measurements taken from patent US20020013282A1, “CATIONIC AMPHIPILE COMPOSITIONS FOR INTERACELLUAR DELIVERY OF THERAPEUTIC MOLECULES” (priority 1995, published 2002).

Tests used:
lungs of balb/c mice = system: lungs of balb/c mice
Experimental: This assay was used to assess the ability of the cationic amphiphiles of the invention to transfect cells in vivo from live specimens. In the assay, the lungs of balb/c mice were instilled intra-nasally (the procedure can also be performed trans-tracheally) with 100 μl of cationic amphiphile: DNA complex, which was allowed to form during a 15-minute period prior to administration according to the following procedure. The amphiphile (premixed with co-lipid, see below) was hydrated in water for 10 minutes, a period sufficient to yield a suspension at twice the final concentration required. This was vortexed for two minutes and aliquoted to provide 55 microliter quantities for each mouse to be instilled. Similarly, DNA encoding the reporter (CAT) gene was diluted with water to a concentration twice the required final concentration, and then aliquoted at 55 microliters for each mouse to be instilled. The lipid was gently combined with the DNA (in a polystyrene tube), and the complex allowed to form for 15 minutes before the mice were instilled therewith.
The plasmid used (pCMVHI-CAT, see Example 4) provides an encoding DNA for chloramphenicol transferase enzyme. Specifics on the amphiphile: DNA complexes are provided below.
Two days following transfection, mice were sacrificed, and the lungs and trachea removed, weighed, and homogenized in a buffer solution (250 mM Tris, pH 7.8, 5 mM EDTA). The homogenate was clarified by centrifugation, and the deacetylases therein were inactivated by heat treatment at 70° C. for 10 minutes. Lysate was incubated overnight with acetyl coenzyme A and C^14-chloramphenicol. CAT enzyme activity was then visualized by thin layer chromatography (“TLC”) following an ethyl acetate extraction.
The presence of the enzyme CAT will cause an acetyl group to be transferred from acetylcoenzyme A to C^14-chloramphenicol. The acetylated/radiolabeled chloramphenicol migrates faster on a TLC plate and thus its presence can be detected.
With respect to the comparison provided by FIG. 10, the following conditions are of note. The transfection solution for spermidine cholesterol carbamate contained 6 mM DNA measured as concentration of nucleotide, and 1.5 mM of cationic amphiphile. […] For transfection with DC-chol, the molar ratio of DC-chol to DOPE was 3:2, and the concentrations of cationic amphiphile and of DNA (as nucleotide) were 1.3 mM and 0.9 mM, respectively. For transfection with DMRIE, the molar ratio of DMRIE to DOPE was 1:1 and the concentrations of cationic amphiphile and of DNA were 1.7 mM and 1.2 mM, respectively.
Additional experiments were performed to compare in vivo the transfection efficiency of cationic amphiphiles depicted in FIGS. 1, 5 and 7. […] The compounds were administered intra-nasally using between 12 and 15 mice per compound. As in part A above, ng CAT activity was measured per 100 mg of tissue. […] Construction of pCF1/CAT and pCF2/CAT is described below in Example 4.
The in vivo data reported in FIGS. 13, 14 and 15 were compiled generally as follows. As aforementioned, FIGS. 10 and 11 report data from the complete in vivo optimization of amphiphile No. 53. Amphiphile No. 67 was subjected to a similar partial optimization. With respect to all of the other cationic amphiphiles reported on, and taking advantage of numerous structural similarities, optimized compositions for in vivo testing were extrapolated from in vitro results.

[1] = system: CFT-1 cell line (human cystic fibrosis bronchial epithelial cells); experiment: Cell transfection assay (β-galactosidase expression from pCMVβ); format: cell-based; conditions: amphiphile:DOPE 1:1, CFT-1 cells
[2] = system: Immortalized human cystic fibrosis airway cells (CFT-1); experiment: SPQ assay of cAMP-stimulated Cl− channel activity after transfection with pCMV-CFTR; format: cell-based; conditions: amphiphile:DOPE 1:1, 10.5 μmolar each, 30 μmolar pCMV-CFTR; 48 hours after transfection
Experimental: Immortalized human cystic fibrosis airway cells (CFT-1, as above) were used.
In preparation for the assay, the cells were grown on glass coverslips until approximately 60% confluent. The cells were then transfected with a complex of spermidine cholesterol carbamate: DOPE (1:1) and a plasmid(pCMV-CFTR) containing a cDNA that encodes wild type human CFTR. pCMV-CFTR plasmid is a construct containing the encoding sequence for CFTR and the following regulatory elements, a CMV promoter and enhancer, and an SV40 polyadenylation signal. Additional constructs suitable for the practice of this example include pMT-CFTR, Cheng et al., Cell. 63, 827-834 (1990). The complex used was 10.5 μmolar of spermidine cholesterol carbamate (also of DOPE) and 30 μmolar of pCMV-CFTR based on nucleotide.
48 hours after amphiphile-mediated transfection, cells were tested for cAMP-stimulated Cl^−channel activity using the 6methoxy-N-(3-sulfopropyl)quinolinium (“SPQ”) assay. […] In the assay, cAMP-dependent Cl^−channel activity was assessed using “SPQ” (from Molecular Probes, Eugene, Oreg.), a halide-sensitive fluorophore. Increases in halide permeability results in a more rapid increase in SPQ fluorescence, and the rate of change (rather than the absolute change in fluorescence) is the important variable in assessing Cl^−permeability. […]

BALB/c mouse = experiment: Intravenous delivery of CAT reporter transgene, organ targeting (lung, heart); format: in vivo
Experimental: The reporter plasmid pCF-1 CAT (Example 4) was used and was purified to minimize endotoxin (<1 EU/mg pDNA), and also chromosomal DNA contamination (<2%). Amphiphile No. 53 (1:1 with DOPE)/DNA complex was prepared according to the procedures of Example 3. The amphiphile was provided as the free base, the plasmid was prepared as a sodium salt in water, and the DOPE was provided in zwitterionic form.
The animal model was the BALB/c mouse. Females 6-8 weeks old weighing 16-18 g were injected intravenously using the tail vein, using 5 animals per group. The volume of lipid: pDNA complex used was 100 μl in all experiments. Unless noted otherwise, mice were sacrificed 48 h following administration of the complex. Organs were frozen immediately on dry ice to store for subsequent analysis.
Expression of chloramphenicol acetyl transferase (CAT) was quantitated using a radiochemical assay for CAT enzymatic activity. Organs were weighed and homogenized on ice in a lysis buffer containing protease inhibitors. The lysate was freeze-thawed 3X, centrifuged, and heated to 65° C. to inactivate deacetylases before adding it to a reaction mixture containing ^14C-chloramphenicol. […] Spots corresponding to the acylated reaction products were quantitated (Betagen) and converted to ng CAT activity using authentic CAT standards. […]

[3] = Zeta potential of amphiphile/DNA complex; format: physicochemical; conditions: 1:1 with DOPE
Experimental: Zeta potentials of the samples can be measured (using typically 5 measurements per sample) employing a Malvern Zetasizer 4 (Malvern Instruments, Southborough, Mass.) and a zeta cell (AZ-104 cell, Malvern Instruments Co.). Dried lipid films containing the cationic lipid and DOPE are hydrated in distilled water (dH2O). DNA typically should be diluted to a concentration of about 300 μM in dH2O. The DNA solution (1.5 mL) can then be added to an equal volume of cationic lipid vesicles and incubated at room temperature for 10 min. Enough NaCl (for example, 4 mM stock) may be added to result in a final concentration of 1 mM NaCl. If necessary, the sample can be diluted further with 1 mM NaCl (to maintain a photomultiplier signal below 4000 counts per second), and distilled water can be used in place of the NaCl solutions.

[4] = Transacylation reaction of amphiphile with co-lipid DOPE on co-storage; format: physicochemical
From the text: Although heretofore unrecognized in the art, it has been determined also that certain co-lipids may react chemically with certain types of cationic amphiphiles under conditions of co-storage, there resulting new molecular species. Generation of such new species is believed to occur via mechanisms such as transacylation. In this regard, see FIG. 4 which depicts a transacylation reaction involving spermidine cholesterol carbamate(No.67) and DOPE, there resulting lyso PE species and multiple forms of particular acyl-cationic amphiphile (designated No. 80).
With respect to such reactions, the following remarks are of interest. […] It is expected that these phenomena would also apply to lyophilized amphiphile/DOPE preparations.
Accordingly, it is highly preferred to maintain such amphiphile/DOPE preparations at very cold temperatures, such as −70 degrees C.

[5] = Transgene expression by protonation state of the amphiphile in transfecting composition with DOPE; conditions: for transgene expression activity: with DOPE
Experimental: With respect to amphiphile No. 67 (spermidine cholesterol carbamate), it has been observed that when providing this amphiphile for a transfecting composition with DOPE (itself provided as a zwitterion), transgene expression was best for the free base, but decreased if the amphiphile was prepared as an acetate salt. […] Under the circumstances described, the plasmid DNA provided for contacting with the amphiphile was prepared (without buffer) as a sodium salt in water.

[6] = 0.6 mM amphiphile, 0.6 or 1.2 mM DOPE, 3.6 mM plasmid DNA
[7] = 1.0-1.5 mM amphiphile, cholesterol 1:1, DNA 4.0-6.0 mM, pCMVHI-CAT, intra-nasal

## CC(C)CCCC(C)C1CCC2C3CC=C4CC(OC(=O)NCCCNCCCCN)CCC4(C)C3CCC12C (centres unmarked) [amphiphile No. 37, N^1-spermidine cholesteryl carbamate]
Lungs of balb/c mice; [6]
  improvement in reporter gene expression, free base form versus fully protonated hydrochloride salt: ~50 fold
  reporter gene expression, free base form compared to fully protonated hydrochloride salt: dramatically increased

## CC(C)CCCC(C)C1CCC2C3CC=C4CC(OC(=O)N(CCCN)CCCCN)CCC4(C)C3CCC12C (centres unmarked) [amphiphile No. 53, N^4-spermidine cholesteryl carbamate]
[1]
  transfection efficiency (β-galactosidase expression) improved by a factor, relative to DMRIE:DOPE (1:1): about 5
[2]
  cells exhibiting measurable cAMP-stimulated Cl− channel activity: Approximately 60%
Lungs of balb/c mice; 1.5 mM amphiphile, 1:1 DOPE, 6 mM DNA (pCMVHI-CAT), intra-nasal, 2 days
  enhancement of in vivo transfection (ng CAT activity per 100 mg tissue) in relation to DMRIE and DC-Chol: ≥ 20 fold
Lungs of balb/c mice; 6 mM DNA (as nucleotide), 1.5 mM amphiphile, 1.5 mM co-lipid, procedures of Example 3 part B
  transfection enhancement in relation to N^1-spermidine cholesteryl carbamate: about 30 fold
Lungs of balb/c mice; [7]
  transfection efficiency (ng CAT/100 mg tissue) with cholesterol as co-lipid compared with DOPE as co-lipid: less effective
  transfection with cholesterol as co-lipid compared with DC-Chol/DOPE: substantially more effective
Lungs of balb/c mice; about 0.75 mM amphiphile, 3.0 mM plasmid, versus 1.5 mM / 6 mM
  toxicity to the target cells: less toxic
BALB/c mouse; amphiphile/DNA molar ratio less than about 0.5, DNA 0.9 mM
  organ distribution of CAT expression: strongly weighted toward the lung
BALB/c mouse; amphiphile/DNA ratio 1.25, DNA 0.9 mM
  organ distribution of CAT expression: substantial expression was found in the heart
[3]; amphiphile/DNA molar ratio less than about 0.5
  zeta potential of the complex: about −30 mV
[3]; amphiphile/DNA ratio of 1.25
  zeta potential of the complex: about +30 mV

## CC(C)CCCC(C)C1CCC2C3CC=C4CC(OC(=O)N(CCCN)CCCCNCCCN)CCC4(C)C3CCC12C (centres unmarked) [amphiphile No. 67]
Lungs of balb/c mice; 4 mM DNA (as nucleotide), 1 mM amphiphile, 2 mM co-lipid, procedures of Example 3 part B
  transfection enhancement in relation to N^1-thermospermine cholesteryl carbamate and N^1-spermidine cholesteryl carbamate: at least 30 fold
[4]; amphiphile and co-lipid dried down to a thin film from chloroform
  transacylation with DOPE: transacylation also occurs
[4]; amphiphile prepared as mono, di, or tri acetate salt
  transacylation with DOPE: slow transacylations
[4]; mixture of amphiphile and DOPE in chloroform solvent
  transacylation with DOPE: does not appear to participate in such reactions
[5]; amphiphile as free base, with DOPE (zwitterion)
  transgene expression: best
[5]; amphiphile as mono and di acetate salts
  transgene expression activity: decreased step-wise
[5]; amphiphile as tri-acetate salt
  transgene expression activity: minimal
